The values that follow come from patent publication US9040565B2, “1H-benzimidazole-5-carboxamides as anti-inflammatory agents” (Orexo AB, priority 2008, dated 2015).

This test has as its target T1, recombinant human mPGES-1 (Homo sapiens, UniProt O14684).
T1 construct: made in house; host or cells: Rosetta E. coli (microsomal/membrane fraction)
T1 sequence (O14684 1-152): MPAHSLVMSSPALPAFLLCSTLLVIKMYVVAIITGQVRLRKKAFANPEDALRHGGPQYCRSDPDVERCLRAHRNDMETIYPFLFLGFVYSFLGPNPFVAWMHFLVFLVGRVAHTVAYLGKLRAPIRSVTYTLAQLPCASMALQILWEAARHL
Put plainly: mPGES-1 inhibition, HTRF detection of PGE2 (Biological Test). Type of test: biochemical. The protocol:
Microsomes from Rosetta E. coli bacteria expressing recombinant human mPGES-1 is dissolved in 0.1 M KPi pH 7.4 buffer containing 2.5 mM GSH. 50 μl of the enzyme is subsequently dispensed in a 384-well plate. 0.5 μl of the inhibitor dissolved in DMSO at is thereafter added to each well and incubated for 25 minutes at room temperature.
Subsequently, 2 μl of PGH2 dissolved in an appropriate solvent is added to each well and after one minute the acidified stop solution containing FeCl2 is added. 4 μl of the total volume is transferred to a separate plate and diluted 750-fold in two separate steps before HTRF detection of PGE2.
The HTRf detection is performed by the use of a commercially available kit from CisBio essentially according to the manufacturer's protocol. Briefly, 10 μl of the diluted sample is transferred to a white 384-well plate. 5 μl of d2 and 5 μl Eu3+-Cryptate labeled anti-PGE2 is added to each well containing samples by the use of a Multidrop. The plate is covered with a plastic self-adhesive film, centrifuged at 1200 rpm for 1 minute and subsequently stored at +4° C. over night.
After over night incubation the fluorescence is measured by the use of an appropriate microplate reader. The fluorescence of europium cryptate, and d2 are measured using the following excitation and emission wavelength, europium cryptate: λmax^ex=307 nm, λmax^em=620 nm and d2: λmax^ex=620 nm, λmax^em=665 nm), respectively. The extent of the specific FRET is measured as a ratio of the emission intensity at 665 nm vs. that at 620 nm. A standard curve using synthetic PGE2 is used to quantify the amount of PGE2 in unknown samples.
Background: TR-FRET usually uses a lanthanide donor and a delayed reading to cut background.
Broadly, the inhibition is the drop in the measured response relative to a control, in per cent. Consider `Cc1ccnc(Cl)c1Nc1nc2ccc(C(=O)NC3CCC(C)(C)CC3)cc2[nH]1` [Example 531, 2-(2-Chloro-4-methylpyridin-3-ylamino)-N-(4,4-dimethylcyclohexyl)-1H-benzimidazole-5-carboxamide], for which the inhibition at 10 µM amounted to 93%. For `O=C(Nc1cccc(Cl)c1)c1ccc2nc(Nc3c(Cl)cncc3Cl)[nH]c2c1` [Example 434, N-(3-Chlorophenyl)-2-(3,5-dichloropyridin-4-ylamino)-1H-benzimidazole-5-carboxamide], the inhibition at 10 µM came out at 98%. On to `COc1cc2[nH]c(Nc3c(Cl)cncc3Cl)nc2cc1C(=O)Nc1cccc(N(C)C)n1` [Example 696, 2-(3,5-Dichloropyridin-4-ylamino)-N-(6-dimethylamino-pyridin-2-yl)-6-methoxy-1H-benzimidazole-5-carboxamide], for which the inhibition at 10 µM was determined as 100%. The figure for `O=C(N[C@H]1CC[C@H](C(F)(F)F)CC1)c1cc2nc(Nc3c(Cl)cncc3Cl)[nH]c2cc1OCCF` [Example 677, 2-(3,5-Dichloropyridin-4-ylamino)-N-(trans-4-trifluoromethyl-cyclohex-1-yl)-6-(2-fluoroethoxy)-1H-benzimidazole-5-carboxamide] is 100%. As to `O=C(Nc1ccc(F)c(C(F)F)n1)c1cc2nc(Nc3c(Cl)cncc3Cl)[nH]c2cc1OCC(F)(F)F` [Example 707, 2-(3,5-Dichloropyridin-4-ylamino)-N-(6-difluoromethyl-5-fluoro-pyridin-2-yl)-6-(2,2,2-trifluoroethoxy)-1H-benzimidazole-6-carboxamide], the inhibition at 10 µM worked out at 100%. With `CCOc1cc2[nH]c(Nc3c(Cl)cncc3Cl)nc2cc1C(=O)NC1CCC(C)(C)CC1` [Example 669, 2-(3,5-Dichloropyridin-4-ylamino)-N-(4,4-dimethyl-cyclohexyl)-6-ethoxy-1H-benzimidazole-5-carboxamide] the figure was 100%; with `COc1cc2[nH]c(Nc3c(Cl)cncc3Cl)nc2cc1C(=O)Nc1cc(C(F)(F)F)ccn1` [Example 680, 2-(3,5-Dichloropyridin-4-ylamino)-N-(4-trifluoromethyl-pyridin-2-yl)-6-methoxy-1H-benzimidazole-5-carboxamide], 100%. With `Cn1c(Nc2c(Cl)cncc2Cl)nc2cc(C(=O)Nc3ccc(Br)cc3)ccc21` [Example 410, N-(4-Bromophenyl)-2-(3,5-dichloropyridin-4-ylamino)-1-methyl-1H-benzimidazole-5-carboxamide] the figure was 100%.

For `COc1cc2[nH]c(Nc3c(Cl)cncc3Cl)nc2cc1C(=O)Nc1ccc(C2CC2)cn1` [Example 684, 2-(3,5-Dichloro-pyridin-4-ylamino)-N-(5-cyclopropyl-pyridin-2-yl)-6-methoxy-1H-benzimidazole-5-carboxamide], the inhibition at 10 µM stood at 98%. With `O=C(Nc1ccc(Br)cc1)c1cc2nc(Nc3c(Cl)cncc3Cl)[nH]c2cc1OCCF` [Example 678, 2-(3,5-Dichloropyridin-4-ylamino)-N-(4-bromophenyl)-6-(2-fluoroethoxy)-1H-benzimidazole-5-carboxamide] the figure was 100%; with `CCOc1cc2[nH]c(Nc3c(Cl)cncc3Cl)nc2cc1C(=O)Nc1cc(C)cc(C(F)(F)F)n1` [Example 709], 100%. The figure for `Cn1c(Nc2c(Cl)cncc2Cl)nc2cc(C(=O)Nc3ccc(Br)cc3)c(OCCN3CCCC3)cc21` [Example 663, 2-(3,5-Dichloropyridin-4-ylamino)-N-(4-bromophenyl)-6-(2-(pyrrolidin-1-yl)-ethoxy)-1-methyl-1H-benzimidazole-5-carboxamide] is 96%; for `Cn1c(Nc2c(Cl)cncc2Cl)nc2cc(C(=O)Nc3ccc(Br)cc3)c(OCCN3CCCC3=O)cc21` [Example 664, 2-(3,5-Dichloropyridin-4-ylamino)-N-(4-bromophenyl)-6-(2-(pyrrolidin-2-on-1-yl)-ethoxy)-1-methyl-1H-benzimidazole-5-carboxamide] it is 99%; for `CCOc1cc2[nH]c(Nc3c(Cl)cncc3Cl)nc2cc1C(=O)Nc1cccc(C(F)F)n1` [Example 698] it is 99%. Turning to `COCCOc1cc2c(cc1C(=O)NC1CCC(C)(C)CC1)nc(Nc1c(Cl)cncc1Cl)n2C` [Example 671, 2-(3,5-Dichloropyridin-4-ylamino)-N-(4,4-dimethyl-cyclohexyl)-6-(2-methoxy-ethoxy)-1-methyl-1H-benzimidazole-5-carboxamide], the inhibition at 10 µM was 100%. With `CCOc1cc2[nH]c(Nc3c(Cl)cncc3Cl)nc2cc1C(=O)Nc1cc(C(F)(F)F)ccn1` [Example 694, 2-(3,5-Dichloropyridin-4-ylamino)-N-(4-trifluoromethyl-pyridin-2-yl)-6-ethoxy-1H-benzimidazole-6-carboxamide] the figure was 98%. With `O=C(Nc1ccc(Br)cc1)c1ccc2[nH]c(Nc3ccncc3Cl)nc2c1` [Example 566, N-(4-Bromophenyl)-2-(3-chloropyridin-4-ylamino)-1H-benzimidazole-5-carboxamide], the inhibition at 10 µM was 77%. As to `Cn1c(Nc2c(Cl)cncc2Cl)nc2cc(C(=O)Nc3ccc(Br)cc3)c(OC3CCOC3)cc21` (stereo not drawn) [Example 661, 2-(3,5-Dichloropyridin-4-ylamino)-N-(4-bromophenyl)-6-(tetrahydrofuran-3-yl-oxy)-1-methyl-1H-benzimidazole-5-carboxamide], the inhibition at 10 µM was found to be 100%. On to `CCOc1cc2c(cc1C(=O)Nc1cc(C(F)(F)F)ccn1)nc(Nc1c(Cl)cncc1Cl)n2CC(F)(F)F` [Example 705], for which the inhibition at 10 µM came out at 94%. Turning to `CCOc1cc2[nH]c(Nc3c(Cl)cncc3Cl)nc2cc1C(=O)Nc1cc(C(F)(F)F)cc(N(C)C)n1` [Example 697], the inhibition at 10 µM turned out to be 100%.

As for `Cn1c(Nc2c(Cl)cncc2Cl)nc2cc(C(=O)NC3CCCCC3)ccc21` [Example 547, N-Cyclohexyl-2-(3,5-dichloropyridin-4-ylamino)-1-methyl-1H-benzimidazole-5-carboxamide], the inhibition at 10 µM is 96%. With `Cn1c(Nc2c(Cl)cncc2Cl)nc2cc(C(=O)NC3CCC(C)(C)CC3)c(F)cc21` [Example 674, 2-(3,5-Dichloropyridin-4-ylamino)-N-(4,4-dimethyl-cyclohex-1-yl)-6-fluoro-1-methyl-1H-benzimidazole-5-carboxamide] the figure was 100%; with `O=C(Nc1ccc(Br)cc1)c1cc2nc(Nc3c(Cl)cncc3Cl)[nH]c2cc1OC1CCOC1` (stereo not drawn) [Example 659, 2-(3,5-Dichloro-pyridin-4-yl-amino)-6-(tetrahydrofuran-3-yl-oxy)-N-(4-bromo-phenyl)-1H-benzimidazole-5-carboxamide], 98%; with `COc1cc2[nH]c(Nc3c(Cl)cncc3Cl)nc2cc1C(=O)NCc1ncccc1C1CCC1` [Example 688, 2-(3,5-Dichloro-pyridin-4-ylamino)-N-((3-cyclobutyl-pyridin-2-yl)-methyl)-6-methoxy-1H-benzimidazole-5-carboxamide], 100%. With `COc1cc2[nH]c(Nc3c(Cl)cncc3Cl)nc2cc1C(=O)Nc1ccc(Br)cn1` [Example 682, 2-(3,5-Dichloro-pyridin-4-ylamino)-N-(5-bromo-pyridin-2-yl)-6-methoxy-1H-benzimidazole-5-carboxamide] the figure was 99%. With `Cn1c(Nc2c(Cl)cncc2Cl)nc2cc(C(=O)NCc3ccccc3C(F)(F)F)c(OC3CCOC3)cc21` (stereo not drawn) [Example 665, 2-(3,5-Dichloropyridin-4-ylamino)-N-((2-trifluoromethyl-phen-1-yl)-methyl)-6-(tetrahydrofuran-3-yl-oxy)-1-methyl-1H-benzimidazole-5-carboxamide] the figure was 99%; with `O=C(NCc1ncccc1C(F)(F)F)c1ccc2[nH]c(Nc3c(Cl)cncc3Cl)nc2c1` [Example 565, 2-(3,5-Dichloropyridin-4-ylamino)-N-((3-trifluoromethyl-pyridin-2-yl)methyl)-1H-benzimidazole-5-carboxamide], 84%.

As for `O=C(Nc1ccc(Br)cc1)c1ccc2nc(Nc3c(Cl)cncc3Cl)[nH]c2c1` [Example 388, N-(4-Bromophenyl)-2-(3,5-dichloropyridin-4-ylamino)-1H-benzimidazole-5-carboxamide], the inhibition at 10 µM is 100%. With `CN(C)c1cc2c(cc1C(=O)NC1CCC(C)(C)CC1)nc(Nc1c(Cl)cncc1Cl)n2C` [Example 672, 2-(3,5-Dichloropyridin-4-ylamino)-N-(4,4-dimethyl-cyclohexyl)-6-dimethylamino-1-methyl-1H-benzimidazole-5-carboxamide] the figure was 100%; with `CCOc1cc2[nH]c(Nc3c(Cl)cncc3Cl)nc2cc1C(=O)Nc1cc(C(F)F)c(F)cn1` [Example 655, 2-(3,5-Dichloro-pyridin-4-yl-amino)-6-ethoxy-N-(5-fluoro-4-difluoromethyl-pyridin-2-yl)-1H-benzimidazole-5-carboxamide], 100%.
